Source: patent US6596763B1, “Topical formulations containing as a therapeutic active agent fatty acids or fatty alcohols or monoglyceride derivatives thereof for treating of mucosa infections” (priority 1996, dated 2003)

Tests used:
[1] = tested on: HIV-1; conditions: 25 mM, human plasma, 30 min; cited from earlier work
[2] = tested on: HIV-2; conditions: 25 mM, human plasma, 30 min; cited from earlier work
[3] = tested on: HSV-1; assay: Virucidal activity against HSV-1 in culture medium (MM); format: cell-based, Herpes simplex virus type 1; conditions: room temperature, 1 minute
[4] = tested on: HSV-1; assay: Virucidal activity against HSV-1 in human semen; conditions: room temperature, 1 minute
[5] = tested on: C. trachomatis; assay: Inactivation of C. trachomatis; conditions: 37° C., 10 minutes
[6] = tested on: Enveloped viruses; conditions: virucidal activity in cell culture media; cited from earlier work
[7] = tested on: VV; assay: Virucidal activity against visna virus (VV) in culture medium (MM); format: cell-based; conditions: room temperature, 1 minute
Procedure: The lipids were dissolved in ethanol at a concentration of 1 M and stored at 4° C. In each experiment they were suspended in MM by vortexing at the highest speed for 1 min.

[8] = tested on: vaginal mucosa of rabbits; conditions: rabbit, in vivo

## CCCCCCCCOC[C@@H](O)CO [1-0-Octyl-SN-glycerol]
[1]
  inactivated HIV-1: more than 10^9 fold
[2]
  inactivated HIV-2: more than 10^9 fold

## CCCCCCCCCC(=O)O [Capric acid, capric acid]
[3]; lipid 20 mM in MM
  Reduction of virus titer,log10 HSV-1: <0.5 log10

## CCCCCCCC(=O)OCC(O)CO (stereo not shown) [Caprylic acid 1-monoglyceride, caprylic acid 1-monoglyceride]
[4]; monoglyceride 20 mM
  Reduction of HSV-1 titer, log10: 1.0 log10
[3]; lipid 10 mM in MM
  Reduction of virus titer,log10 HSV-1: 0 log10
[3]; lipid 20 mM in MM
  Reduction of virus titer,log10 HSV-1: 0.5 log10
[5]; monoglyceride 5 mM in medium
  Reduction of IFU (log10): 0.1 log10
[5]; monoglyceride 10 mM in medium
  Reduction of IFU (log10): 0.3 log10
[5]; monoglyceride 20 mM in medium
  Reduction of IFU (log10): 0.2 log10

## CCCCCCCCCCCC(=O)OCC(O)CO (stereo not shown) [Lauric acid 1-monoglyceride, lauric acid 1-monoglyceride]
[4]; monoglyceride 20 mM
  Reduction of HSV-1 titer, log10: 2.0 log10
[3]; lipid 5 mM in MM
  Reduction of virus titer,log10 HSV-1: 3.0 log10
[3]; lipid 10 mM in MM
  Reduction of virus titer,log10 HSV-1: 3.5 log10
[3]; lipid 20 mM in MM
  Reduction of virus titer,log10 HSV-1: 3.1 log10
[5]; monoglyceride 5 mM in medium
  Reduction of IFU (log10): 0.5 log10
[5]; monoglyceride 10 mM in medium
  Reduction of IFU (log10): 0.7 log10
[5]; monoglyceride 20 mM in medium
  Reduction of IFU (log10): 0.5 log10
[6]
  more active than the corresponding free fatty acid (capric and lauric acids): 10 fold

## CCCCCCCCCCCC(=O)O [Lauric acid, lauric acid]
[3]; lipid 10 mM in MM
  Reduction of virus titer,log10 HSV-1: <1.5 log10
[3]; lipid 20 mM in MM
  Reduction of virus titer,log10 HSV-1: >5.8 log10

## CCCCCCCCCC(=O)OCC(O)CO (stereo not shown) [Monocaprin, capric acid 1-monoglyceride]
[4]; monoglyceride 10 mM
  Reduction of HSV-1 titer, log10: 3.0 log10
[4]; monoglyceride 20 mM
  Reduction of HSV-1 titer, log10: >4.0 log10
[7]; lipid 10 mM in MM
  Reduction of virus titer,log10 VV: 2.4 log10
[7]; lipid 20 mM in MM
  Reduction of virus titer,log10 VV: 3.8 log10
[3]; lipid 2.5 mM in MM
  Reduction of virus titer,log10 HSV-1: 2.2 log10
[3]; lipid 5 mM in MM
  Reduction of virus titer,log10 HSV-1: >5.5 log10
[3]; lipid 10 mM in MM
  Reduction of virus titer,log10 HSV-1: >5.3 log10
[3]; lipid 20 mM in MM
  Reduction of virus titer,log10 HSV-1: >5.8 log10
[5]; monoglyceride 5 mM in medium
  Reduction of IFU (log10): >5.6 log10
[5]; monoglyceride 10 mM in medium
  Reduction of IFU (log10): >5.6 log10
[5]; monoglyceride 20 mM in medium
  Reduction of IFU (log10): >4.6 log10
[6]
  more active than the corresponding free fatty acid (capric and lauric acids): 10 fold

## CCCCCCCCCCCCCC(=O)O [Myristic acid, myristic acid]
[3]; lipid 10 mM in MM
  Reduction of virus titer,log10 HSV-1: 0 log10
[3]; lipid 20 mM in MM
  Reduction of virus titer,log10 HSV-1: 0 log10

## CCCCCCCC/C=C\CCCCCCCC(=O)OCC(O)CO (stereo not shown) [Oleic acid 1-monoglyceride, oleic acid 1-monoglyceride]
[3]; lipid 10 mM in MM
  Reduction of virus titer,log10 HSV-1: <1.0 log10
[3]; lipid 20 mM in MM
  Reduction of virus titer,log10 HSV-1: <1.0 log10

## CCCCCCCC/C=C\CCCCCCCC(=O)O [Oleic acid, oleic acid]
[3]; lipid 10 mM in MM
  Reduction of virus titer,log10 HSV-1: <1.0 log10
[3]; lipid 20 mM in MM
  Reduction of virus titer,log10 HSV-1: <1.0 log10

## CCCCCC/C=C\CCCCCCCC(=O)OCC(O)CO (stereo not shown) [Palmitoleic acid 1-monoglyceride, palmitoleic acid 1-monoglyceride]
[7]; lipid 10 mM in MM
  Reduction of virus titer,log10 VV: 0.7 log10
[3]; lipid 10 mM in MM
  Reduction of virus titer,log10 HSV-1: 0 log10
[3]; lipid 20 mM in MM
  Reduction of virus titer,log10 HSV-1: 0 log10

## CCCCCC/C=C\CCCCCCCC(=O)O [Palmitoleic acid, palmitoleic acid]
[3]; lipid 5 mM in MM
  Reduction of virus titer,log10 HSV-1: <1.0 log10
[3]; lipid 10 mM in MM
  Reduction of virus titer,log10 HSV-1: >5.0 log10

## CC(O)CO (stereo not shown) [propylene glycol]
[8]
  effects in the vaginal mucosa of rabbits (in words): toxic effects
